Data reported in patent US10925854B2, “Methods and compositions for preventing or treating fatty liver, protecting liver function or ameliorating liver diseases caused by fatty liver or other associated disorders” (SINEW PHARMA INC., priority 2015, dated 2021).

Tests used:
[1] = tested on: B6 mice fed with high fat feed (fatty liver); assay: Liver lipids (TG, TC in liver) in mice with induced fatty liver; format: in vivo
Protocol: (§1) B6 mice recommended in the specification “Method for evaluating the liver protection and health care efficacies of health food” announced by the Department of Health were chosen for animal testing. More than four (4) mice were used in each group of the pre-test, while more than twelve (12) mice were used in each group of the confirmatory test. Male mice bred at 23±2° C. in an animal room with 55±15% relative humidity under normal light/dark cycle (7:00 AM-7:00 PM lights on/7:00 PM-7:00 AM lights off) and weighing 18-23 g were purchased from BioLASCO (Taipei) and housed at Laboratory Animal Center in National Defense Medical Center. The animal test was carried out according to the guideline for animal experiment of National Health Research Institutes. Mice were fed with normal feed at 3-5 g/day and unlimited supply of water for 1-2 weeks and investigated for health condition. The weight of mice was recorded once a week.
(§2) The tested animals were grouped randomly into Blank, High Fat Diet control (HFD), Positive Control (PS), and Test group. The animals of Blank were fed with normal feed. The animals of HFD were fed with high fat feed. The animals of PS were fed with high fat feed, and additionally fed with silymarin (5 mg/kg/day) by a tube. The animals of Test group were fed with high fat feed, and additionally force-fed with test compounds by a tube.
(§3) The animals of Blank were fed casually with normal feed for 12 weeks, while the animals of HFD, PS, and Test group were fed casually with high fat feed for 12 weeks. After 8 weeks of feeding, the animals of Blank and HFD were fed with deionized water by a tube once a day; the animals of PS were fed with silymarin by a tube once a day; and the animals of Test Group were fed with test compounds by a tube once a day for a duration of 4 or 8 weeks.
In addition, abdominal fat and liver specimens were taken from the abdomens of sacrificed mice and weighted to compare the weight of fat and liver and obtain a ratio of liver weight to body weight. Two tissue blocks with a volume of approximately 1 cm^3 were cut from the largest right lobe of liver, fixed in 10% neutral formalin solution, and then embedded with paraffin for sectioning and H&E staining for histopathological observation. Moreover, the rest of the liver was frozen for preservation and detection of the contents of triglyceride and total cholesterol in the liver. Furthermore, the liver function of animals of each group were analyzed by Galactose Single Point Method, which was recognized and recommended for quantification of remaining liver function in clinical use by U.S. FDA and Ministry of Health and Welfare, Taiwan. At the end of the tests, 0.5 g of galactose (G.S.P.® 0.4 g/mL) per kg of animal was administered via intravenous. One hour after the administration, about 0.5 ml of whole blood was taken by using a filter paper to evaluate liver function of mice. The higher the value of GSP was, the worse the remaining liver function would be (FDA: “Guidance for Industry: Pharmacokinetics in Patients with Impaired. Hepatic Function—Study Design, Data Analysis and Impact on Dosing and. Labeling. 2003).

[2] = tested on: B6 mice fed with high fat feed (fatty liver); assay: Liver histopathology (H&E) and NAS score in mice with induced fatty liver; format: in vivo; details: for large vesicular fat droplets within liver cells in liver tissue section: H&E sections, treatment for 4 weeks (FIG. 1); for effect on liver damages (NAS, in words): fatty liver mice
Protocol: as §1, §2, §3
At the end of the test, all mice were sacrificed. One tissue block with a volume of approximately 1 cm^3 was cut from the largest right lobe of liver, fixed in 10% neutral formalin, and then dehydrated and hyalinized in various concentrations of ethanol (30, 50, 70, 95, 99.5%) and xylene. Afterwards, xylene was replaced with hot paraffin solution. At last, the tissue was embedded with paraffin solution. The finished paraffin specimen was cut into 5 pun-thickness paraffin sections by the microtome. The sections were pasted on clean slides, dried at 37° C., and then stained by H&E staining.
Liver tissue sections were deparaffinized in xylene for 30 minutes, and then successively rehydrated in 99.5%, 95%, 70%, 50%, and 30% ethanol for 30 minutes, respectively. After being soaked in distilled water for 10 minutes, the sections could be stained. The sections were first immersed in hematoxylin for 30 seconds to stain cell nuclei, then washed with distilled water for a few minutes, stained with eosin for 2-5 minutes, and washed with distilled water for a few minutes again. […]
In order to observe the changes of lesion, fat accumulation, necrosis, or fibrosis in liver cells when there was an ongoing liver damage, liver tissues were H&E stained to evaluate the degree of liver fat accumulation. […] As for the assessment of semi-quantitative analysis in pathology, it had to be confirmed by a physician or a veterinary pathologist who conducted a double-blind analysis to score (NAS score)^16 and compare all the sections without knowing the test design. […]

[3] = tested on: HepG2 fatty liver cells (induced with oleic acid); assay: Reduction of TG content in oleic acid-induced HepG2 fatty liver cells; format: cell-based, human; details: Homo sapiens, 72 h; tested substances 1.0 uM, fatty liver cells from HepG2; read-out: TG reduction rate
Protocol: The activity of the various compounds of the present invention in reduction of fat content was analyzed by using human hepatoma cell line Hep G2.
HepG2 cell lines (15×10^6 cells) were cultured in DMEM culture No. B, incubated in an incubator with 5% CO2 at 37° C. for 24 hours, cultured in DMEM culture No. C (serum-free medium) for 24 hours, and finally cultured in DMEM culture No. D (containing oleate/albumin complex) for another 48 hours to induce HepG2 cell lines to form fatty liver cells.
HepG2 cell lines were divided into six groups, including: (1) Blank: no treatment; (2) DMSO group: cells from Blank were treated with dimethyl sulfoxide (DMSO); (3) Control: induction with oleic acid to form fatty liver cells; (4) Vehicle group: fatty liver cells formed by induction with oleic acid were treated with DMSO; (5) Positive control: fatty liver cells were treated with silymarin; and (6) Test Group: fatty liver cells were treated with various compounds of the present invention.
After incubation for 72 hours, the treated cells from each group were successively washed twice with PBS, and then incubated with 0.5 ml of trypsin/EDTA for 3 minutes. Afterwards, the cells were scraped with 2 ml of PBS and then transferred to the centrifuge tube to be shattered by ultrasonic. 20 μl of the cell extracts was taken to determine the content of protein. TG determination was performed using commercially available combination of agents (Randox). The TG content obtained above was divided by the protein content to obtain a ratio, representing a relative TG content in the cells.
The equation for calculating reduction rate (%) of TG was as follows: [1−(TG content of Test Group−TG content of Blank)/(TG content of Oleic acid induction Group−TG content of Blank)]×100%.

[4] = tested on: B6 mice fed with high fat feed (fatty liver); assay: Serum ALT and AST (liver dysfunction) in mice with induced fatty liver; format: in vivo
Protocol: as §1, §2, §3
Before testing and in the eighth (8th), twelfth (12th), and sixteenth (16th) week after testing, blood was collected from the cheek or the heart. At the end of testing, all mice were weighted and then sacrificed, and blood was collected from the cheek or the heart simultaneously. The blood specimens of mice was placed at room temperature for one hour to clot, and then the serum was separated by centrifugation in a refrigeration centrifuge at 15,700×g at 4° C. for 5 minutes. Afterwards, biochemical indices of liver function, including aspartate transaminase (AST), alanine aminotransferase (ALT), triglyceride (TG), total cholesterol (TCHO/TC), low-density lipoprotein cholesterol (LDL-C), and high-density lipoprotein cholesterol (HDL-C), were detected by the automatic blood biochemistry analyzer.

[5] = tested on: B6 mice fed with high fat feed (fatty liver); assay: Liver antioxidant capacity (Gpx, GSH, Grd, SOD) in mice with induced fatty liver; format: in vivo; details: for effect on liver antioxidant activity (in words): fatty liver mice
Protocol: as §1, §2, §3
About 0.1 g of liver tissue was taken from the sacrificed animal and homogenized by centrifuge with a biomasher for 10 minutes. A 9-fold weight (w/w) of buffer (pH 7.4, 50 mmol/L Tris-HCl, 180 mmol/L KCl) was added to the homogenized tissue, which was then mixed well by a Vortex mixer for subsequent use. The resulting homogenization solution samples of liver tissue was used for the analysis of various members of liver antioxidant systems, including glutathione peroxidase (GPx), glutathione (GSH), glutathione reductase (Grd), and superoxide dismutase (SOD). Methods of related analysis can be found in the known literatures, for example, the draft of “Method for evaluating the liver protection and health care efficacies of health food” announced by the Ministry of Health and Welfare, Taiwan.

[6] = Abdominal fat weight, liver weight and increase of body weight in high fat feed mice; format: in vivo, B6 mice; details: fatty liver mice
Protocol: as §1, §2
The animals of Blank were fed casually with normal feed for 12 weeks, while the animals of HFD, PS, and Test group were fed casually with high fat feed for 12 weeks. […]
In addition, abdominal fat and liver specimens were taken from the abdomens of sacrificed mice and weighted to compare the weight of fat and liver and obtain a ratio of liver weight to body weight. […] Furthermore, the liver function of animals of each group were analyzed by Galactose Single Point Method, which was recognized and recommended for quantification of remaining liver function in clinical use by U.S. FDA and Ministry of Health and Welfare, Taiwan. […]

Compound | effect on TC in liver (in words) [1] | effect on TG in liver (in words) [1] | large vesicular fat droplets within liver cells in liver tissue section [2] | effect on liver damages (NAS, in words) [2] | inhibition at 1 µM [3] | effect on ALT and AST values (in words) [4] | effect on liver antioxidant activity (in words) [5] | effect on weight of abdominal fat (in words) [6] | Gpx, GSH, Grd, and SOD levels (in words) ([5]; 4-week treatment)
O=C1C[C@@H](c2ccc(O)c(O)c2)Oc2cc(O)cc(O)c21 [eriodictyol] | reduces TC in liver significantly | reduces TG in liver significantly | significantly reduced | can significantly reduce liver damages | 35.1 ± 0.87% | can significantly reduce ALT and AST values | can significantly enhance antioxidant activity |  | 
CC1CCC(C(C)C)C(O)C1 (stereo not drawn) [menthol] | reduces TC in liver significantly | reduces TG in liver significantly | significantly reduced |  | 66.2 ± 1.87% | can significantly reduce ALT and AST values |  | reduces the weight of abdominal fat in animals significantly | 
OC[C@H]1O[C@H](O[C@]2(CCl)O[C@H](CCl)[C@@H](O)[C@@H]2O)[C@H](O)[C@@H](O)[C@H]1Cl [sucralose] | reduces TC in liver significantly | reduces TG in liver significantly |  |  | 26.7 ± 2.93% | can significantly reduce ALT and AST values |  | reduces the weight of abdominal fat in animals significantly | 
OC[C@@H](O)[C@@H](O)[C@H](O)[C@H](O)CO [mannitol] | reduces TC in liver significantly | reduces TG in liver significantly | significantly reduced | can significantly reduce liver damages | 22.4 ± 5.74% | can significantly reduce ALT and AST values | can significantly enhance antioxidant activity | reduces the weight of abdominal fat in animals significantly | substantial increases
